Experimental data taken from patent US9854800B2, “Herbicidal compositions comprising 4-amino-3-chloro-6-(4-chloro-2-fluoro-3-methoxyphenyl)-5-fluoropyridine-2-carboxylic acid or a derivative thereof and chlormequat chloride” (priority 2015, dated 2018).

Assays:
Assay type in all cases: in vivo
Conditions in all cases: 21 DAA
[1] = system: KCHSC = Kochia scoparia (L.) Schrad. (kochia); assay: Post-emergent foliar herbicidal activity, greenhouse: KCHSC
Experimental: (§1) Seeds of the desired test plant species were planted in Sun Gro MetroMix® 306 planting mixture, which typically has a pH of 6.0 to 6.8 and an organic matter content of about 30 percent, in plastic pots with a surface area of 103.2 square centimeters (cm^2). When required to ensure good germination and healthy plants, a fungicide treatment and/or other chemical or physical treatment was applied. The plants were grown for 7-36 days in a greenhouse with an approximate 14 hour (h) photoperiod which was maintained at about 18° C. during the day and 17° C. during the night. Nutrients and water were added on a regular basis and supplemental lighting was provided with overhead metal halide 1000-Watt lamps as necessary. The plants were employed for testing when they reached the second or third true leaf stage.
(§2) Treatments consisted of the compound of formula (I) and a second herbicide alone (chlormequat). Weighed amounts of the compound of formula (I) were placed in 25 milliliter (mL) glass vials and dissolved in 4 mL of a 97:3 v/v mixture of acetone and DMSO to obtain concentrated stock solutions. Compound requirements are based upon a 12 mL application volume at a rate of 187 liters per hectare (L/ha). Spray solutions of the second herbicide and compound of formula (I) mixtures were prepared by adding the stock solutions to the appropriate amount of dilution solution to form 12 mL spray solution with active ingredients in two-way combinations. Formulated compounds were applied to the plant material with an overhead Mandel track sprayer equipped with 8002E nozzles calibrated to deliver 187 L/ha over an application area of 0.503 square meters (m^2) at a spray height of […] above average plant canopy. Control plants were sprayed in the same manner with the solvent blank.
(§3) The treated plants and control plants were placed in a greenhouse as described above and watered by sub-irrigation to prevent wash-off of the test compounds. After 20-22 days, the condition of the test plants as compared with that of the control plants was determined visually and scored on a scale of 0 to 100 percent where 0 corresponds to no injury and 100 corresponds to complete kill.
(§4) Colby's equation was used to determine the herbicidal effects expected from the mixtures (Colby, S. R. 1967. Calculation of the synergistic and antagonistic response of herbicide combinations. Weeds 15:20-22.) .
(§5) The following equation was used to calculate the expected activity of mixtures containing two active ingredients, A and B: Expected=A+B−(A×B/100)
(§6) A=observed efficacy of active ingredient A at the same concentration as used in the mixture.
(§7) B=observed efficacy of active ingredient B at the same concentration as used in the mixture.

[2] = system: STEME = Stellaria media (common chickweed); assay: Post-emergent foliar herbicidal activity, greenhouse: STEME
Experimental: as §1, §2, §3, §4, §5, §6, §7

[3] = system: VIOTR = Viola tricolor L. (wild violet); assay: Post-emergent foliar herbicidal activity, greenhouse: VIOTR
Experimental: as §1, §2, §3, §4, §5, §6, §7

[4] = system: SASKR = Salsola tragus L. (Russian thistle); assay: Post-emergent foliar herbicidal activity, greenhouse: SASKR
Experimental: as §1, §2, §3, §4, §5, §6, §7

[5] = system: MATCH = Matricaria recutita L. (wild chamomile); assay: Post-emergent foliar herbicidal activity, greenhouse: MATCH
Experimental: as §1, §2, §3, §4, §5, §6, §7

[6] = system: SINAR = Sinapis arvensis L. (wild mustard); assay: Post-emergent foliar herbicidal activity, greenhouse: SINAR
Experimental: as §1, §2, §3, §4, §5, §6, §7

[7] = system: GALAP = Galium aparine L. (catchweed bedstraw); assay: Post-emergent foliar herbicidal activity, greenhouse: GALAP
Experimental: as §1, §2, §3, §4, §5, §6, §7

[8] = system: PAPRH = Papaver rhoeas L. (common poppy); assay: Post-emergent foliar herbicidal activity, greenhouse: PAPRH
Experimental: as §1, §2, §3, §4, §5, §6, §7

[9] = system: HORVS = Hordeum vulgare L. (spring barley); assay: Post-emergent foliar herbicidal activity, greenhouse: HORVS (crop)
Experimental: as §1, §2, §3, §4, §5, §6, §7

[10] = system: LAMPU = Lamium purpureum L. (purple deadnettle); assay: Post-emergent foliar herbicidal activity, greenhouse: LAMPU
Experimental: as §1, §2, §3, §4, §5, §6, §7

[11] = system: CIRAR = Cirsium arvense (L.) Scop. (Canada thistle); assay: Post-emergent foliar herbicidal activity, greenhouse: CIRAR
Experimental: as §1, §2, §3, §4, §5, §6, §7

[12] = system: CHEAL = Chenpodium album L. (common lambsquarters); assay: Post-emergent foliar herbicidal activity, greenhouse: CHEAL
Experimental: as §1, §2, §3, §4, §5, §6, §7

[13] = system: BRSNW = Brassica napus napus (winter) (winter rape); assay: Post-emergent foliar herbicidal activity, greenhouse: BRSNW
Experimental: as §1, §2, §3, §4, §5, §6, §7

[14] = system: VERPE = Veronica persica Poir. (Persian speedwell); assay: Post-emergent foliar herbicidal activity, greenhouse: VERPE
Experimental: as §1, §2, §3, §4, §5, §6, §7

[15] = system: TRZAS = Triticum aestivum (spring) (spring wheat); assay: Post-emergent foliar herbicidal activity, greenhouse: TRZAS (crop)
Experimental: as §1, §2, §3, §4, §5, §6, §7

[16] = Compound I 0 + Chlormequat Chloride 279 g ai/ha
[17] = Compound I 0 + Chlormequat Chloride 558 g ai/ha
[18] = Compound I 0 + Chlormequat Chloride 1119 g ai/ha
[19] = Compound I 2.5 + Chlormequat Chloride 0 g ai/ha
[20] = Compound I 5 + Chlormequat Chloride 0 g ai/ha
[21] = Compound I 10 + Chlormequat Chloride 0 g ai/ha

For `C[N+](C)(C)CCCl.[Cl-]` [Chlormequat Chloride, (2-chloroethyl)trimethylammonium chloride], the “KCHSC Obs” value [1, 16] was 5%, the “KCHSC Obs” value [1, 17] was 5% and the “KCHSC Obs” value [1, 18] was 7%. For the same compound, the “STEME Obs” value [2, 16] was 8%, the “STEME Obs” value [2, 17] was 8% and the “STEME Obs” value [2, 18] was 7%. The “VIOTR Obs” value [3, 16] was 0%, the “VIOTR Obs” value [3, 17] was 0% and the “VIOTR Obs” value [3, 18] was 3%. The “SASKR Obs” value [4, 16] was 0%, the “SASKR Obs” value [4, 17] was 0% and the “SASKR Obs” value [4, 18] was 7%. For the same compound, the “MATCH Obs” value [5, 16] was 0%, the “MATCH Obs” value [5, 17] was 0% and the “MATCH Obs” value [5, 18] was 27%. The “SINAR Obs” value [6, 16] was 8%, the “SINAR Obs” value [6, 17] was 15% and the “GALAP Obs” value [7, 16] was 3%. For the same compound, the “GALAP Obs” value [7, 17] was 5%, the “GALAP Obs” value [7, 18] was 20% and the “PAPRH Obs” value [8, 16] was 5%. The “PAPRH Obs” value [8, 17] was 5%, the “PAPRH Obs” value [8, 18] was 7% and the “HORVS Obs” value [9, 16] was 0%. The “HORVS Obs” value [9, 17] was 0%, the “LAMPU Obs” value [10, 16] was 15% and the “LAMPU Obs” value [10, 17] was 15%. The “LAMPU Obs” value [10, 18] was 30%, the “CIRAR Obs” value [11, 16] was 5% and the “CIRAR Obs” value [11, 17] was 5%. For the same compound, the “CIRAR Obs” value [11, 18] was 10%, the “CHEAL Obs” value [12, 16] was 0% and the “CHEAL Obs” value [12, 17] was 3%. For the same compound, the “BRSNW Obs” value [13, 16] was 0%, the “BRSNW Obs” value [13, 17] was 3% and the “BRSNW Obs” value [13, 18] was 5%. The “VERPE Obs” value [14, 16] was 10%, the “VERPE Obs” value [14, 17] was 10% and the “VERPE Obs” value [14, 18] was 13%. For the same compound, the “TRZAS Obs” value [15, 16] was 0% and the “TRZAS Obs” value [15, 17] was 8%.

For `COc1c(Cl)ccc(-c2nc(C(=O)OCc3ccccc3)c(Cl)c(N)c2F)c1F` [Compound I, benzyl 4-amino-3-chloro-6-(4-chloro-2-fluoro-3-methoxyphenyl)-5-fluoropyridine-2-carboxylate], the “KCHSC Obs” value [1, 19] was 20%, the “KCHSC Obs” value [1, 20] was 41% and the “KCHSC Obs” value [1, 21] was 62%. The “STEME Obs” value [2, 19] was 25%, the “STEME Obs” value [2, 20] was 25% and the “STEME Obs” value [2, 21] was 27%. For the same compound, the “VIOTR Obs” value [3, 19] was 30%, the “VIOTR Obs” value [3, 20] was 20% and the “VIOTR Obs” value [3, 21] was 20%. The “SASKR Obs” value [4, 19] was 15%, the “SASKR Obs” value [4, 20] was 50% and the “SASKR Obs” value [4, 21] was 67%. For the same compound, the “MATCH Obs” value [5, 19] was 20%, the “MATCH Obs” value [5, 20] was 25% and the “MATCH Obs” value [5, 21] was 20%. The “SINAR Obs” value [6, 19] was 70%, the “SINAR Obs” value [6, 20] was 73% and the “GALAP Obs” value [7, 19] was 55%. For the same compound, the “GALAP Obs” value [7, 20] was 66%, the “GALAP Obs” value [7, 21] was 77% and the “PAPRH Obs” value [8, 19] was 48%. The “PAPRH Obs” value [8, 20] was 28%, the “PAPRH Obs” value [8, 21] was 35% and the “HORVS Obs” value [9, 19] was 0%. The “HORVS Obs” value [9, 20] was 0%, the “LAMPU Obs” value [10, 19] was 80% and the “LAMPU Obs” value [10, 20] was 86%. The “LAMPU Obs” value [10, 21] was 94%, the “CIRAR Obs” value [11, 19] was 48% and the “CIRAR Obs” value [11, 20] was 39%. For the same compound, the “CIRAR Obs” value [11, 21] was 60%, the “CHEAL Obs” value [12, 19] was 50% and the “CHEAL Obs” value [12, 20] was 58%. The “BRSNW Obs” value [13, 19] was 18%, the “BRSNW Obs” value [13, 20] was 13% and the “BRSNW Obs” value [13, 21] was 13%. For the same compound, the “VERPE Obs” value [14, 19] was 20%, the “VERPE Obs” value [14, 20] was 17% and the “VERPE Obs” value [14, 21] was 23%. For the same compound, the “TRZAS Obs” value [15, 19] was 0% and the “TRZAS Obs” value [15, 20] was 0%.
